# Assay results: patent US5563130A, “Methods for inhibiting angiogenesis, proliferation of endothelial or tumor cells and tumor growth” (American Cyanamid Company, priority 1994, dated 1996)
# Assays:
# Format in all cases: cell-based
# [1] = tested on: Adult Bovine Aortic Endothelial (ABAE) cell line; experiment: Antiproliferative activity in ABAE cells, PROTOCOL 1 (48 h, SRB); details: Bos taurus
# Protocol: PROTOCOL 1, 2, and 3 are described in greater detail hereinbelow. In general, according to PROTOCOLS 1 and 2, the target ABAE and/or Human Tumor cells are exposed to the compound of Formula I for 48 hours. PROTOCOL 3 exposes ABAE cell to the compound for 4 days. A detailed description of the protocol is as follows: Antiproliferative Activity in Human Tumor and Adult Bovine Aortic Endothelial (ABAE) Cell Lines The antiproliferative activity of the compounds of Formula I of the present invention is evaluated in a panel comprised of human tumor cell lines and an adult bovine aortic endothelial cell line (ABAE). […] The number of cells on the plate are quantitated using a protein dye-binding assay (Monks et al., 1991). […] The optical densities are read from an automatic spectrophotometric plate reader (Dynatech) directly to a main frame computer (VAX 8600). […] Mean values and standard errors are determined from duplicate wells. […] The number of cells after treatment (P), as % of control, is calculated for every concentration of drug, as follows: [formula] wherein: T is optical density measurement for treated cells after 48 hours; C is optical density measurement for untreated cells after 48 hours; Co is optical density measurement for cells at the time of drug addition. IC50 of growth inhibition is calculated from the sets of P values using the RS-1 data package (BBN Software). […]
# [2] = tested on: Adult Bovine Aortic Endothelial (ABAE) cell line; experiment: Antiproliferative activity in ABAE cells, PROTOCOL 2 (48 h, SRB, single well); details: Bos taurus; ABAE cells, 48 h, PROTOCOL 2
# Protocol: (§1) PROTOCOL 1, 2, and 3 are described in greater detail hereinbelow. In general, according to PROTOCOLS 1 and 2, the target ABAE and/or Human Tumor cells are exposed to the compound of Formula I for 48 hours. PROTOCOL 3 exposes ABAE cell to the compound for 4 days. A detailed description of the protocol is as follows:
# Antiproliferative Activity in Human Tumor and Adult Bovine Aortic Endothelial (ABAE) Cell Lines
# The antiproliferative activity of the compounds of Formula I is evaluated in a panel comprised of human tumor cell lines and an adult bovine aortic endothelial cell line (ABAE) as listed in PROTOCOL 1. This assay is a modification of PROTOCOL 1. The modifications include:
# 1) each concentration for each compound is tested in a single well;
# 2) compounds are tested at 20, 4, 0.8, 0.16 microgram/ml and additionally in some experiments at 100 and 0.32 microgram/ml;
# 3) samples are pipetted into a 96-well plate for each of the cell lines by a Beckman Biomek 1000 SL robot;
# 4) after fixing with TCA each well is washed with 0.35 ml distilled water twice, not five times;
# 5) after staining with sulforhodamine B each well is washed 3 times, not five times;
# 6) the growth inhibition (I) as % of control, is calculated using the RS-1 data package (BBN Software), for every concentration of drug, as follows: [formula] wherein: T is optical density measurement for treated cells after 48 hours;
# C is optical density measurement for untreated cells after 48 hours;
# 7) IC50 of growth inhibition is determined from graphically from dose response curves, as is known in the art.
# Table 1 presents the results depicting the antiproliferative activity of the compounds of Formula I against an Adult Bovine Aortic Endothelial (ABAE) cell line, as evaluated by PROTOCOL 1 and PROTOCOL 2. The results are presented in terms of IC50 and are as follows.
# [3] = tested on: Adult Bovine Aortic Endothelial (ABAE) cell line; experiment: Antiproliferative activity in ABAE cells, PROTOCOL 3 (4 days, cell count); details: Bos taurus, 96 h, PROTOCOL 3, FIG. 1, read-out: inhibits 50% of cell growth
# Protocol: as §1
# Antiproliferative Activity in Adult Bovine Aortic Endothelial (ABAE) Cell Line
# ABAE cells are grown in DMEM media (Mediatech, Washington, D.C.) supplemented with 10% calf serum (Hyclone). ABAE cells are plated in 24-well dishes at 8,000 cells/well, followed by the addition of increasing concentrations of 7-[substituted amino]-9-[(substituted glycyl)amido]-6-demethyl-6-deoxytetracyclines. After four days, the cells are detached and counted. […] The growth inhibition (I) as % of control is calculated as follows: [formula] wherein: Nc is the number of cells in untreated wells;
# Nt is the number of cells in treated wells;
# No is the number of plated cells.
# IC50 of growth inhibition is determined from the sets of I values plotted by Kaleidograph software (Abelbeck Software).
# In addition FIG. 1, presents the dose response curve of the compound of Example 6 for the above ABAE cell line obtained by PROTOCOL 3.
structure (smiles),measurement,setting,value
"CN(C)c1ccc(O)c2c1C[C@H]1C[C@H]3[C@H](N(C)C)C(O)=C(C(N)=O)C(=O)[C@@]3(O)C(O)=C1C2=O [Minocycline, reference compound]",IC50,[1],6.8 µg/mL
same,IC50,[2],≥ 20 µg/mL
same,IC50,[3],~50 µg/mL
